# Active and inactive are the calls of the source. No rule for the calls is given here.
# Tested on: CCRIS mutagenicity, Ames/micronucleus/aberration tests
# Assay: CCRIS mutagenicity studies
# [1] = Test System: AMES SALMONELLA TYPHIMURIUM, Strain/Indicator: TA1537, Metabolic Activation: NONE, Method: STANDARD PLATE
# [2] = Test System: AMES SALMONELLA TYPHIMURIUM, Strain/Indicator: TA100, Metabolic Activation: NONE, Method: STANDARD PLATE
smiles,measurement,setting,value
ClCCC(Br)CBr (stereo unspecified),mutagenic call,"Test System: AMES SALMONELLA TYPHIMURIUM, Strain/Indicator: TA100, Metabolic Activation: RAT, LIVER, MICROSOMES, PHENOBARBITAL, Method: PREINCUBATION",inactive; negative
same,mutagenic call,"Test System: AMES SALMONELLA TYPHIMURIUM, Strain/Indicator: TA100, Metabolic Activation: RAT, LIVER, MICROSOMES, Method: PREINCUBATION",inactive; negative
CCCC(=O)C1c2cccc(O)c2C(=O)c2c(O)cccc21,mutagenic call,[1],active; positive
same,mutagenic call,"Test System: AMES SALMONELLA TYPHIMURIUM, Strain/Indicator: TA1537, Metabolic Activation: RAT, LIVER, S-9, PHENOBARBITAL AND BETA-NAPHTHOFLAVONE, Method: STANDARD PLATE",active; positive
same,mutagenic call,"Test System: E. COLI, Strain/Indicator: WP2, Metabolic Activation: NONE, Method: STANDARD PLATE",inactive; negative
same,mutagenic call,"Test System: E. COLI, Strain/Indicator: WP2, Metabolic Activation: RAT, LIVER, S-9, AROCLOR 1254, Method: STANDARD PLATE",inactive; negative
same,mutagenic call,"Test System: E. COLI, Strain/Indicator: WP2 UVRA, Metabolic Activation: NONE, Method: STANDARD PLATE",inactive; negative
same,mutagenic call,"Test System: E. COLI, Strain/Indicator: WP2 UVRA, Metabolic Activation: RAT, LIVER, S-9, AROCLOR 1254, Method: STANDARD PLATE",inactive; negative
CCN(CC)c1ccc(N=Nc2c(Cl)cc([N+](=O)[O-])cc2[N+](=O)[O-])c(NC(C)=O)c1,mutagenic call,"End Point: IN VITRO CHROMOSOMAL ABERRATIONS, Test System: CHL CELLS, Metabolic Activation: NONE",inactive; negative; precipitation of test chemical observed above 0.01 mg/ml
CC(O)CN(CC(O)CO)N=O (stereo unspecified),mutagenic call,"Test System: AMES SALMONELLA TYPHIMURIUM, Strain/Indicator: TA100, Metabolic Activation: HAMSTER, LIVER, S-9, 3-METHYLCHOLANTHRENE, Method: PREINCUBATION",inactive; negative
same,mutagenic call,"Test System: AMES SALMONELLA TYPHIMURIUM, Strain/Indicator: TA100, Metabolic Activation: HAMSTER, LIVER, S-9, PHENOBARBITAL, Method: PREINCUBATION",active; positive
same,mutagenic call,"Test System: AMES SALMONELLA TYPHIMURIUM, Strain/Indicator: TA100, Metabolic Activation: HAMSTER, LIVER, S-9, Method: PREINCUBATION",inactive; negative
same,mutagenic call,"Test System: AMES SALMONELLA TYPHIMURIUM, Strain/Indicator: TA100, Metabolic Activation: MOUSE, LIVER, S-9, 3-METHYLCHOLANTHRENE, Method: PREINCUBATION",inactive; negative
same,mutagenic call,"Test System: AMES SALMONELLA TYPHIMURIUM, Strain/Indicator: TA100, Metabolic Activation: MOUSE, LIVER, S-9, PHENOBARBITAL, Method: PREINCUBATION",active; positive
same,mutagenic call,"Test System: AMES SALMONELLA TYPHIMURIUM, Strain/Indicator: TA100, Metabolic Activation: MOUSE, LIVER, S-9, Method: PREINCUBATION",inactive; negative
same,mutagenic call,"Test System: AMES SALMONELLA TYPHIMURIUM, Strain/Indicator: TA100, Metabolic Activation: NONE, Method: PREINCUBATION",inactive; negative
same,mutagenic call,"Test System: AMES SALMONELLA TYPHIMURIUM, Strain/Indicator: TA100, Method: PREINCUBATION",active; positive
C[Si](C)(C)N[Si](C)(C)C,mutagenic call,"Test System: AMES SALMONELLA TYPHIMURIUM, Strain/Indicator: TA98, Metabolic Activation: HAMSTER, LIVER, S-9, AROCLOR 1254 (10%), Method: STANDARD PLATE",inactive; negative
same,mutagenic call,"Test System: AMES SALMONELLA TYPHIMURIUM, Strain/Indicator: TA98, Metabolic Activation: NONE, Method: STANDARD PLATE",inactive; negative
same,mutagenic call,"Test System: AMES SALMONELLA TYPHIMURIUM, Strain/Indicator: TA98, Metabolic Activation: RAT, LIVER, S-9, AROCLOR 1254 (10%), Method: STANDARD PLATE",inactive; negative
same,mutagenic call,"Test System: AMES SALMONELLA TYPHIMURIUM, Strain/Indicator: TA100, Metabolic Activation: HAMSTER, LIVER, S-9, AROCLOR 1254 (10%), Method: STANDARD PLATE",inactive; negative
same,mutagenic call,[2],inactive; negative
same,mutagenic call,"Test System: AMES SALMONELLA TYPHIMURIUM, Strain/Indicator: TA100, Metabolic Activation: RAT, LIVER, S-9, AROCLOR 1254 (10%), Method: STANDARD PLATE",inactive; negative
same,mutagenic call,"Test System: AMES SALMONELLA TYPHIMURIUM, Strain/Indicator: TA1535, Metabolic Activation: HAMSTER, LIVER, S-9, AROCLOR 1254 (10%), Method: STANDARD PLATE",inactive; negative
same,mutagenic call,"Test System: AMES SALMONELLA TYPHIMURIUM, Strain/Indicator: TA1535, Metabolic Activation: NONE, Method: STANDARD PLATE",inactive; negative
same,mutagenic call,"Test System: AMES SALMONELLA TYPHIMURIUM, Strain/Indicator: TA1535, Metabolic Activation: RAT, LIVER, S-9, AROCLOR 1254 (10%), Method: STANDARD PLATE",inactive; negative
same,mutagenic call,"Test System: AMES SALMONELLA TYPHIMURIUM, Strain/Indicator: TA1537, Metabolic Activation: HAMSTER, LIVER, S-9, AROCLOR 1254 (10%), Method: STANDARD PLATE",inactive; negative
same,mutagenic call,[1],inactive; negative
same,mutagenic call,"Test System: AMES SALMONELLA TYPHIMURIUM, Strain/Indicator: TA1537, Metabolic Activation: RAT, LIVER, S-9, AROCLOR 1254 (10%), Method: STANDARD PLATE",inactive; negative
same,mutagenic call,"Test System: AMES SALMONELLA TYPHIMURIUM, Strain/Indicator: TA1538, Metabolic Activation: HAMSTER, LIVER, S-9, AROCLOR 1254 (10%), Method: STANDARD PLATE",inactive; negative
same,mutagenic call,"Test System: AMES SALMONELLA TYPHIMURIUM, Strain/Indicator: TA1538, Metabolic Activation: NONE, Method: STANDARD PLATE",inactive; negative
same,mutagenic call,"Test System: AMES SALMONELLA TYPHIMURIUM, Strain/Indicator: TA1538, Metabolic Activation: RAT, LIVER, S-9, AROCLOR 1254 (10%), Method: STANDARD PLATE",inactive; negative
same,mutagenic call,"Test System: MOUSE LYMPHOMA, Strain/Indicator: L5178Y (TK+/TK-), Metabolic Activation: NONE, Method: SUSPENSION/PLATE",inactive; negative. reevaluation of results: inconclusive
O=NN(CCO)CCO,mutagenic call,"Test System: AMES SALMONELLA TYPHIMURIUM, Strain/Indicator: TA97, Metabolic Activation: HAMSTER, LIVER, S-9, AROCLOR 1254 (10%), Method: PREINCUBATION",active; positive
same,mutagenic call,"Test System: AMES SALMONELLA TYPHIMURIUM, Strain/Indicator: TA97, Metabolic Activation: NONE, Method: PREINCUBATION",active; positive
same,mutagenic call,"Test System: AMES SALMONELLA TYPHIMURIUM, Strain/Indicator: TA97, Metabolic Activation: RAT, LIVER, S-9, AROCLOR 1254 (10%), Method: PREINCUBATION",active; positive
same,mutagenic call,"Test System: AMES SALMONELLA TYPHIMURIUM, Strain/Indicator: TA98, Metabolic Activation: HAMSTER, LIVER, S-9, AROCLOR 1254 (10%), Method: PREINCUBATION",active; positive
same,mutagenic call,"Test System: AMES SALMONELLA TYPHIMURIUM, Strain/Indicator: TA98, Metabolic Activation: NONE, Method: PREINCUBATION",active; positive
same,mutagenic call,"Test System: AMES SALMONELLA TYPHIMURIUM, Strain/Indicator: TA98, Metabolic Activation: RAT, LIVER, S-9, AROCLOR 1254 (10%), Method: PREINCUBATION",active; positive
same,mutagenic call,"Test System: AMES SALMONELLA TYPHIMURIUM, Strain/Indicator: TA100, Metabolic Activation: HAMSTER, LIVER, S-9, AROCLOR 1254 (10%), Method: PREINCUBATION",active; positive
same,mutagenic call,[2],active; positive
same,mutagenic call,"Test System: AMES SALMONELLA TYPHIMURIUM, Strain/Indicator: TA100, Metabolic Activation: RABBIT, LIVER, S-9, Method: STANDARD PLATE",inactive; negative
same,mutagenic call,"Test System: AMES SALMONELLA TYPHIMURIUM, Strain/Indicator: TA100, Metabolic Activation: RABBIT, LUNG, S-9, Method: STANDARD PLATE",inactive; negative
same,mutagenic call,"Test System: AMES SALMONELLA TYPHIMURIUM, Strain/Indicator: TA100, Metabolic Activation: RABBIT, NASAL, S-9, Method: STANDARD PLATE",active; positive
same,mutagenic call,"Test System: AMES SALMONELLA TYPHIMURIUM, Strain/Indicator: TA100, Metabolic Activation: RAT, LIVER, S-9, AROCLOR 1254 (10%), Method: PREINCUBATION",active; positive
same,mutagenic call,"Test System: AMES SALMONELLA TYPHIMURIUM, Strain/Indicator: TA100, Metabolic Activation: RAT, LIVER, S-9, Method: STANDARD PLATE",inactive; negative
same,mutagenic call,"Test System: AMES SALMONELLA TYPHIMURIUM, Strain/Indicator: TA100, Metabolic Activation: RAT, LUNG, S-9, Method: STANDARD PLATE",active; positive
same,mutagenic call,"Test System: AMES SALMONELLA TYPHIMURIUM, Strain/Indicator: TA100, Metabolic Activation: RAT, NASAL, S-9, Method: STANDARD PLATE",active; positive
same,mutagenic call,"Test System: AMES SALMONELLA TYPHIMURIUM, Strain/Indicator: TA1535, Metabolic Activation: HAMSTER, LIVER, S-9, AROCLOR 1254 (10%), Method: PREINCUBATION",active; positive
same,mutagenic call,"Test System: AMES SALMONELLA TYPHIMURIUM, Strain/Indicator: TA1535, Metabolic Activation: NONE, Method: PREINCUBATION",inactive; negative
same,mutagenic call,"Test System: AMES SALMONELLA TYPHIMURIUM, Strain/Indicator: TA1535, Metabolic Activation: RAT, LIVER, S-9, AROCLOR 1254 (10%), Method: PREINCUBATION",active; positive
